{"source": "patent US20060047261A1", "about": "“Intra-arterial catheter for drug delivery” (priority 2004, published 2006)", "key": {"[1]": {"details": "intracarotid; cited from earlier work"}, "New Zealand rabbits": {"system": "New Zealand rabbits", "assay": "Intracarotid propofol (0.33% and 1%) before, during and after flow arrest: duration of electrocerebral silence", "type": "in vivo, rabbit", "protocol": "The study was conducted on eight New Zealand rabbits that were subjected to six drug challenges. […] The flow arrest was produced by intravenous injection of esmolol (10 mg) and adenosine (30 mg)."}, "[2]": {"details": "co-administration of intracarotid verapamil; n=14, P=0.04"}}, "data": [{"molecule": "CCCC(C)C1(CC)C(=O)NC(=S)NC1=O", "note": "(stereo not drawn) [pentothal]", "values": [{"measurement": "loading dose of 1% pentothal", "setting": "[1]", "value": "about 0.3±0.1 ml"}]}, {"molecule": "CC(C)c1cccc(C(C)C)c1O", "note": "[propofol]", "values": [{"measurement": "time to complete recovery of EEG activity and systemic changes (blood pressure)", "setting": "rabbits; after last intracarotid injection", "value": "≤ 10", "unit": "min"}, {"measurement": "EEG silence", "setting": "rabbits; intracarotid, volume of 0.4 ml with 0.5% propofol", "value": "produced EEG silence in all cases"}, {"measurement": "increase of the duration of EEG silence by changing concentration", "setting": "New Zealand rabbits; 0.33% vs 1% (1 or 3 mg) intracarotid, P=0.02, NS on post-hoc testing, n=8", "value": "2-4 folds"}, {"measurement": "increase of the duration of EEG silence by flow arrest", "setting": "New Zealand rabbits; intracarotid 1 or 3 mg during esmolol/adenosine flow arrest, n=8, P<0.0001", "value": "15-20 folds"}]}, {"molecule": "COc1ccc(CCN(C)CCCC(C#N)(c2ccc(OC)c(OC)c2)C(C)C)cc1OC", "note": "(stereo not drawn) [verapamil]", "values": [{"measurement": "doses of intracarotid propofol required to produce 10 minutes of EEG silence", "setting": "[2]", "value": "significantly increased"}]}]}
